Results published in PubChem BioAssay (NCI).
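96-well plates; 48 h exposure; 5 concentrations. Endpoints by linear interpolation between flanking doses. Not reached: highest tested concentration assigned. Here, GI50 denotes the concentration required for 50% inhibition of growth. TGI denotes the concentration required for complete inhibition of growth.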

How the values were obtained:
Assay in all cases: NCI-60 cell line screen, 48 h
SK-MEL-2 melanoma = tested on: SK-MEL-2 melanoma
786-0 renal = tested on: 786-0 renal
SN12C renal = tested on: SN12C renal
RPMI-8226 leukemia = tested on: RPMI-8226 leukemia
HOP-92 NSCLC = tested on: HOP-92 NSCLC
A549 NSCLC = tested on: A549 NSCLC
NCI-H522 lung = tested on: NCI-H522 lung
HT29 colon = tested on: HT29 colon
SK-MEL-5 melanoma = tested on: SK-MEL-5 melanoma
NCI/ADR-RES ovarian = tested on: NCI/ADR-RES ovarian

Row | Compound | TGI (SK-MEL-2 melanoma) [µM] | TGI (786-0 renal) [µM] | TGI (SN12C renal) [µM] | TGI (RPMI-8226 leukemia) [µM] | TGI (HOP-92 NSCLC) [µM] | TGI (A549 NSCLC) [µM] | TGI (NCI-H522 lung) [µM] | TGI (HT29 colon) [µM] | TGI (SK-MEL-5 melanoma) [µM] | TGI (NCI/ADR-RES ovarian) [µM] | GI50 (SK-MEL-2 melanoma) [µM] | GI50 (786-0 renal) [µM] | GI50 (SN12C renal) [µM] | GI50 (HOP-92 NSCLC) [µM] | GI50 (A549 NSCLC) [µM] | GI50 (NCI-H522 lung) [µM] | GI50 (HT29 colon) [µM] | GI50 (SK-MEL-5 melanoma) [µM] | GI50 (NCI/ADR-RES ovarian) [µM] | GI50 (RPMI-8226 leukemia) [µM]
1 | COc1cc2c(cc1O)-c1c(cnn1-c1ccc([N+](=O)[O-])cc1)CCC2 | 37.4 | > 100 | 14.7 | 16.6 | > 100 | 42.4 | 40.9 | 35.6 | 26.2 | 42.7 |  |  |  |  |  |  |  |  |  | 
2 | Nc1ncnc2c1ncn2Cc1ccc(C23CC4CC(CC(C4)C2)C3)c(OCc2cc(F)c(F)cc2F)c1 | > 100 | > 100 | 67.5 |  | 32.7 | 14.7 | > 100 | > 100 | > 100 | > 100 | > 100 | 17.5 | 11.7 | 4.63 | 3.61 | 7.86 | 12 | 0.955 | 6.49 | 
3 | N#C/C(=N\Nc1ccc(Cl)cc1)C(=O)Nc1cc(-c2ccccc2)nn1-c1ccccc1 | 8.89 | > 100 | > 100 | 6.67 | 4.49 | > 100 | > 100 | > 100 | 4.27 | > 100 | 2.39 | 4.05 | 2.44 | 1.07 | 3.2 | 2.38 | 3.32 | 1.63 | 3.09 | 1.77
4 | Cc1cc2cc3cc(C)c(N(C)C)cc3[n+](C)c2cc1N(C)C | > 100 | 18.8 | > 100 | > 100 | 11.1 | > 100 | 36.1 | > 100 | 6.96 | > 100 | 4.57 | 5.1 | 3.91 | 2.3 | 3.1 | 5.35 | 2.46 | 2.1 | 22.4 | 4.54
5 | N=C(N)c1ccc(OCCOCCOc2ccc(C(=N)N)cc2)cc1 | > 100 | > 100 | > 100 | > 100 | > 100 | > 100 | > 100 | > 100 | > 100 | > 100 | 38.2 | > 100 | 58.8 | 74.6 | 40.1 | 45.5 | 78.3 | 33.1 | > 100 | 68.5
6 | CC(C)Nc1ccc(Nc2ccccc2)cc1 | 66.3 | > 100 | > 100 | 19.5 | 30 | > 100 | 28.8 | 48.4 | 24.9 | 65.3 | 25.6 | 17.8 | 27.1 | 12 | 26.2 | 13.7 | 17 | 11.4 | 9.8 | 3.68
7 | CCCCOc1ccc(NC(=O)n2nc(N)c3ccccc32)cc1 | 76 | 48.4 | 85.9 | 28.4 | 54.1 | > 87.9 | > 89.1 | 26 | 28.2 | 71.1 | 27.8 | 19.7 | 23.4 | 17.7 | 21.6 | 23.9 | 9.98 | 14.9 | 23.9 | 2.63
8 | Oc1ccc(CN2CCC(N3CCOCC3)CC2)c2cccnc12 | > 100 | > 100 | > 100 | > 100 | > 100 | > 100 | 61.2 | > 100 | 57 | > 100 | 52.8 | 42.2 | 47.5 | 65.9 | > 100 | 26.5 | 100 | 23.2 | 29.2 | 32.7
9 | Clc1cc2c(cc1Cl)Oc1cc(Cl)c(Cl)cc1O2 | > 0.625 | > 0.625 | > 0.625 | > 0.625 | > 0.625 |  | > 0.625 | > 0.625 | > 0.625 | > 0.625 | > 0.625 | > 0.625 | > 0.625 | > 0.625 |  | > 0.625 | > 0.625 | > 0.625 | > 0.625 | > 0.625
10 | Cn1cc(C2=C(c3cccc(N)c3)C(=O)NC2=O)c2ccccc21 | > 25 | > 25 | > 25 | > 25 | > 25 | > 25 | > 25 | > 25 | > 25 | > 25 | 14.3 | 14 | 13.7 | > 25 | 14.1 | 15.5 | 13.1 | 9.66 | > 19.7 | > 21.4
11 | CC/C(=C(/c1ccc(OCCN(C)C)cc1)c1ccc(OC(=O)CCC(=O)c2c(C)[nH]c(/C=C3\N=C(c4ccc[nH]4)C=C3OC)c2C)cc1)c1ccccc1 | 6.2 | 5.73 | 18.9 | 5.58 | 4.13 | 10.6 | 5.38 | 11.1 | 2.62 | 15.9 | 2.42 | 2.19 | 3.09 | 0.749 | 2.63 | 1.88 | 0.438 | 1.31 | 3.62 | 1.57
12 | Nc1cc(C(=O)O)[nH]c(=O)n1 | > 100 | > 100 | > 100 | > 100 | > 100 | > 100 | > 100 | > 100 | > 100 | > 100 |  |  |  |  |  |  |  |  |  | 
13 | CC(C)c1c(C(=O)Nc2ccccc2)c(-c2ccccc2)c(-c2ccc(F)cc2)n1CC[C@@H]1CC=CC(=O)O1 | 3.43 | 3.56 | 3.82 | 1.17 | 2.28 | 4.6 | 2.98 | 3.66 | 2.94 | 6.09 | 1.87 | 1.68 | 1.01 | 0.419 | 1.99 | 1.5 | 1.62 | 1.58 | 2.46 | 0.285
14 | Cc1ccc2c(c1)c1nc3cc(C)c(C)cc3nc1n2CCN(C)C | 4.87 | 10.8 | 8.77 | 5.2 | 4.42 | 4.72 | 5.58 | 6.54 | 3.18 | 5.42 | 2.15 | 2.56 | 1.44 | 1.09 | 1.79 | 1.54 | 1.23 | 1.77 | 1.15 | 2.06
15 | CC(=O)CCc1ccc(OC2OC(COC(=O)c3cc(O)c(O)c(O)c3)C(O)C(O)C2OC(=O)/C=C/c2ccccc2)cc1 (configuration not stated) | 43 | 48.2 | 44.4 | 85.3 | > 100 | 59.7 | 48 | 82.2 | 36.1 | > 100 | 20.2 | 18.6 | 20.4 | 30.4 | 25.8 | 18.1 | 29.6 | 19.1 | > 100 | 23.7
16 | Cc1cc(NCCCNc2ccnc3cc(Cl)ccc23)nc(N2CCN(C)CC2)n1 |  | 38.3 | 33.9 | 7.45 | 37.4 | 16.5 | 11.1 | 13.5 | 3.24 | 61.7 |  | 14.7 | 4.76 | 15.2 | 3.66 | 2.43 | 1.33 | 1.67 | 17.5 | 2.56
17 | CN(Cc1ccc(Cl)cc1)c1ccc(CO)c(Cl)c1 | 16.3 | 17 | 22.6 | > 52.3 | 16.1 | 17.8 | 31.2 | 22.6 | 17.3 | 25.4 | 4.06 | 3.82 | 8.55 | 3.16 | 3.9 | 13.4 | 6.7 | 5.42 | 8 | 5.51
18 | O=C(Nc1ccc(F)cc1)Nc1ccccc1CNc1nc(Nc2ccc(OCCN3CCCC3)cc2)ncc1Cl | 18.4 | 1.77 | 2.01 | 3.72 | 2.49 | 20.9 | 13.4 | 50 | 4.98 | 10.4 | 8.7 | 0.92 | 0.984 | 0.849 | 2.72 | 2.26 | 1.49 | 1.55 | 2.59 | 1.4
19 | O=c1cc(-c2ccccc2)oc2cc(O)c(O)c(O)c12 | > 100 | 27.3 | 26 | > 100 | 48.7 | > 100 | > 100 | > 100 | 45.3 | 44.6 | 53.9 | 9.87 | 8.8 | 3.58 | 36.2 | 13.3 | 42.7 | 9.47 | 16 | 9.27
20 | CCOc1ccc(-c2cnnn2-c2nonc2-n2cccc2)cc1 | > 100 | > 100 | > 100 | 10.9 | 9.27 | > 100 | 0.531 | 4.54 | 12.4 | > 38.1 | 0.308 | 0.416 | 0.557 | 0.401 | 0.388 | 0.121 | 0.22 | 0.245 | 0.139 | 0.32
21 | N#Cc1ncc(-c2ccc(C(F)(F)F)cc2)c(NCc2cc(C(F)(F)F)cc(C(F)(F)F)c2)n1 | 7.15 | 96.3 | > 100 | 5.87 | 5.74 | 21.1 | 9.86 | > 100 | 15 | 65.8 | 2.89 | 6.39 | 3.54 | 2.14 | 3.11 | 2.92 | 3.27 | 3.91 | 3.23 | 2.29
22 | CN(CCCCCl)P(=O)(OCc1ccc([N+](=O)[O-])o1)OCC1OC(n2ccc(N)nc2=O)C(F)(F)C1O (configuration not stated) | > 100 | 1.5 | 9.62 | > 100 | 0.83 | > 59.5 | > 100 | > 100 | > 67.1 | > 100 | > 80.3 | 0.0614 | 0.363 | 0.155 | 0.73 | > 39 | 29.7 | 3.2 | 0.419 | 1.87
23 | COc1cc2c3c(n(CCCN(CCN)CCCn4c5c(c6cc(OC)c(OC)cc6c4=O)C(=O)c4cc6c(cc4-5)OCO6)c(=O)c2cc1OC)-c1cc2c(cc1C3=O)OCO2 | > 100 | 1.51 | 0.755 |  | 15 | > 100 | 3.88 | > 37 | 3.34 | > 76.1 | 21.1 | 0.314 | 0.141 | 1.29 | 2.72 | 0.343 | 2.52 | 1.04 | 2.22 | 
24 | O=c1c2ccccc2c(Br)c(Br)c2ccccc12 | 32.5 | 29.8 | 32.8 | 5.84 |  | 73 | 3.47 | 8.13 | 31.6 | 40.6 | 13.3 | 14.7 | 15.8 |  | 20.6 | 1.76 | 3.04 | 13.6 | 16.5 | 2.51
25 | CCN1/C(=C/C=C/c2n(-c3ccccc3)c3ccc(-c4nc5ccccc5s4)cc3[n+]2CC)N(c2ccccc2)c2ccc(-c3nc4ccccc4s3)cc21 | 2.85 | > 50 | 2.44 | > 50 |  | > 26.1 | 3.41 | > 50 | 1.27 | > 50 | 0.89 | 0.602 | 0.175 |  | 0.284 | 0.585 | 0.333 | 0.184 | 3.55 | 0.303
26 | c1ccc2c(c1)sc1c3cnccc3ccc21 | > 100 | > 100 | > 100 | > 100 |  | > 100 | > 100 | > 100 | > 100 | > 100 |  |  |  |  |  |  |  |  |  | 
